Eight compounds from patent publication US12414960B2, “Analogues of oleuropein and oleacein and uses thereof” (Attica Sciences Ltd., priority 2020, dated 2025) can be followed below.

Molecules are shown by their SMILES.

In data set [1] the test system is HeLa cervical cancer cells. Briefly: XTT cell growth assay, HeLa. The settings on record: Homo sapiens, HeLa, 24 h, NS = not statistically significant, read-out: Effectiveness to suppress HeLa cell growth (cell growth inhibition). The format is cell-based, human. An excerpt: (§1) The XTT assay is used to measure cellular metabolic activity as an indicator of cell viability, proliferation and cytotoxicity. This non-radioactive, colorimetric assay system was first described by Scudiero, et al. in 1988 (Paull, Kenneth D. et al., J Heterocycl Chem, 1988, 25: 911-914; Scudiero, Dominic A. et al., Cancer Res, 1988, 48: 4827-4833) and improved in subsequent years by several other investigators (Weislow, Owen S. et al., J Natl Cancer Inst, 1989, 81(8): 577-586; Roehm, N. W. et al., J Immunol Methods, 1991, 142: 257-265).
(§2) The XTT assay is based on the reduction of a yellow tetrazolium salt (sodium 3′-[1-(phenylaminocarbonyl)-3,4-tetrazolium]-bis (4-methoxy6-nitro) benzene sulfonic acid hydrate or XTT) to an orange formazan dye by metabolically active cells (FIG. 8). The formazan dye formed is soluble in aqueous solutions and is directly quantified using a scanning multiwell spectrophotometer (ELISA reader). An increase in number of living cells results in an increase in the overall activity of mitochondrial dehydrogenases in the sample. This increase directly correlates to the amount of orange formazan formed, as monitored by the absorbance. Reduced number of living cells leads to reduced metabolism of quaternary salt and therefore reduced absorption.
(§3) Cell viability was assessed using the XTT assay kit (Roche, Mannheim, Germany) as described previously (Kouka, Paraskevi et al., Oxid Med Cell Longev. 2019, Article ID 1870965). Briefly, cancer cells per well were cultured in a 96-well plate in Dulbecco's modified Eagle's medium (DMEM). Following a 24 h incubation, 5, 10 and 50 μM of the tested GS compound was diluted in a serum-free DMEM and administered for 24 h. Subsequently, 50 μL of the XTT reagent (50:1) was added to each well. After 4 h of incubation, the absorbance was monitored at 450 nm and also at 630 nm as a reference wavelength in a BioTek ELx800 microplate reader (BioTek Instruments Inc., Winooski, VT, USA). As a negative control, samples containing serum-free DMEM only were used.
HeLa is a human immortal cell line used in scientific research. It is the oldest and most commonly used human cell line. The line was derived from cervical cancer cells taken on Feb. 8, 1951 from Henrietta Lacks, a patient who died of cancer on Oct. 4, 1951.
(§4) The effects of exemplary compounds on cancer cell lines and one non-tumorigenic cell line (control) were investigated using a high throughput screening assay. More specifically, the effects of the GS compounds on cell growth was evaluated by the XTT assay for cell lines HepG2, HeLa, MCF7 ER+, MDA-MB-231, and MKN-45, and by the Cell Glo luminescence assay for cell lines MIA PaCa-2, HCT-116, MCF-10A, and PANC-1.

The subject of data set [2] is MDA-MB-231 triple negative breast cancer cells. Briefly: XTT cell growth assay, MDA-MB-231. The conditions noted are these: NS = not statistically significant; for inhibition at 50 µM: Homo sapiens, MDA-MB-231, 24 h, read-out: Effectiveness to suppress MDA-MB-231 cell growth (cell growth inhibition); for Effectiveness to suppress MDA-MB-231 cell growth (cell growth inhibition): 50 uM, 24 h. The class given is cell-based, human.
Text: as §1, §2, §3
MDA-MB-231 is a human epithelial breast cancer cell line that was established from a pleural effusion of a person with a metastatic mammary adenocarcinomal and is one of the most commonly used breast cancer cell lines in medical research laboratories.
as §4

Data set [3] has as its system MIA PaCa-2 pancreatic cancer cells. Briefly: Cell Glo luminescence cell growth assay, MIA PaCa-2. The class given is cell-based, human. The conditions noted are these: Homo sapiens, MIA PaCa-2, 24 h, NS = not statistically significant, read-out: Effectiveness to suppress MIA PaCa-2 cell growth (cell growth inhibition).
Text: (§5) The CellTiter-Glo® Luminescent Cell Viability Assay (Promega Corporation; Madison, WI) is a homogeneous method of determining the number of viable cells in culture based on quantitation of the ATP present, an indicator of metabolically active cells. The homogeneous assay procedure involves adding the single reagent (CellTiter-Glo® Reagent) directly to cells cultured in serum-supplemented medium. The homogeneous “add-mix-measure” format results in cell lysis and generation of a luminescent signal proportional to the amount of ATP present. The amount of ATP is directly proportional to the number of cells present in culture.
(§6) Cancer cells (3,000 cells/well) were harvested in a 96-well plate. Then, the cancer cells were treated with GS compounds and incubated for 24 hours. The MT Cell Viability Substrate, NanoLuc® Enzyme and cell culture medium was equilibrated to 37° C. The 2× RealTime-Glo™ reagent was prepared by diluting the MT Cell Viability Substrate and NanoLuc® Enzyme in 37° C. cell culture medium to a 2× concentration for each reagent. For example, 1 mL of 2× RealTime-Glo™ reagent was prepared by adding 2 μL of MT Cell Viability Substrate, 1,000×, and 2 μL of NanoLuc® Enzyme, 1,000×, to 996 μL of cell culture medium to form the 2× RealTime-Glo™ reagent. Then, an equal volume of 2× RealTime-Glo™ reagent was added to the cancer cells. The cells were kept for ˜20 minutes in the cell culture incubator and then luminescence was measured by using a plate-reading luminometer.
MIA PaCa-2 is a human pancreatic ductal adenocarcinoma cell line derived from the carcinoma of a person.
as §4

Data set [4] deals with HCT-116 colon cancer cells. Briefly: Cell Glo luminescence cell growth assay, HCT-116. The class given is cell-based, human. The settings on record: NS = not statistically significant; for Effectiveness to suppress HCT-116 cell growth (cell growth inhibition): 1 uM, 24 h; for inhibition at 1 µM: Homo sapiens, HCT-116, 24 h, read-out: Effectiveness to suppress HCT-116 cell growth (cell growth inhibition).
Text: as §5, §6
HCT-116 is a human colorectal cancer cell lines that has a mutation in RAS proto-oncogene.
as §4

The subject of data set [5] is MCF-7 ER+ breast cancer cells. The data set can be described thus: XTT cell growth assay, MCF-7 ER+. The class given is cell-based, human. The conditions noted are these: Homo sapiens, MCF7, 24 h, NS = not statistically significant, read-out: Effectiveness to suppress MCF7 cell growth (cell growth inhibition).
Text: as §1, §2, §3
MCF-7 ER+ is a human breast cancer cell line isolated in 1970 from a person. Prior to MCF-7, it was not possible for cancer researchers to obtain a mammary cell line that was capable of living longer than a few months.
as §4

Data set [6] in a line: Deoxyribose degradation assay (hydroxyl radical scavenging). The class given is biochemical. The settings on record: NS = not statistically significant. As for the experimental part:
The hydroxyl radical (OH.) is an extremely reactive in biological systems and has been implicated as highly damaging species in free radical pathology, capable of damaging biomolecules of the living cells. These radical combines with nucleotides in DNA and cause strand breakage leading to carcinogenesis, mutagenesis and cytotoxicity. Hydroxyl radical (OH.) scavenging capacity of an extract is directly related to its antioxidant activity.
The effect of extracts on hydroxyl radicals was assayed by using the deoxyribose method. 2-Deoxyribose is degraded on exposure to hydroxyl radicals generated by Fenton's reaction. The ability to neutralize the OH. is estimated as the rate of inhibition of the oxidation of 2-deoxyribose by the OH. (FIG. 5).
The measurement of the hydroxyl radical scavenging activity was evaluated for each of the GS compound by evaluating the pink chromogen absorption at 532 nm by spectrophotometry as described previously (Perjesi, Pal et al., Open Med Chem J., 2011, 5: 61-67

For the compound `C/C=C1/[C@H](OC2OC(CO)C(O)C(O)C2O)OC=C(C(=O)O)[C@H]1CC(=O)O` (stereo in doubt) [GS2, (2S,4S,E)-4-(carboxymethyl)-3-Ethylidene-2-{[(2R,3S,4R,5R,6S)-3,4,5-trihydroxy-6-(hydroxymethyl)tetrahydro-2H-pyran-2-yl]oxy}-3,4-dihydro-2H-pyran-5-carboxylic acid], the inhibition at 50 µM in data set [1] was determined as 24.4%; in data set [2] it was 41.8%.

For `C/C=C1/[C@H](OC2OC(CO)C(O)C(O)C2O)OC=C(C(=O)O)[C@H]1CC(=O)OCC12CC3CC(CC(C3)C1)C2` (stereo in doubt) [GS3, (2S,4S,E)-4-(2-(adamantan-1-ylmethoxy)-2-oxoethyl)-3-ethylidene-2-{[(2R,3S,4R,5R,6S)-3,4,5-trihydroxy-6-(hydroxymethyl)tetrahydro-2H-pyran-2-yl]oxy}-3,4-dihydro-2H-pyran-5-carboxylic acid], the inhibition at 50 µM in data set [2] was 64.7%.

With `C/C=C1/[C@H](OC2OC(CO)C(O)C(O)C2O)OC=C(C(=O)O)[C@H]1CC(=O)OCCC1CCCCC1` (stereo in doubt) [GS5, (2S,4S,E)-4-(2-(2-cyclohexylethoxy)-2-oxoethyl)-3-ethylidene-2-{[(2R,3S,4R,5R,6S)-3,4,5-trihydroxy-6-(hydroxymethyl)tetrahydro-2H-pyran-2-yl]oxy}-3,4-dihydro-2H-pyran-5-carboxylic acid], in data set [2], the inhibition at 50 µM is 33.6%.

As to `C/C=C1/[C@H](OC2OC(CO)C(O)C(O)C2O)OC=C(C(=O)O)[C@H]1CC(=O)OCCc1ccc(O)cc1` (stereo in doubt) [GS7, (2S,4S,E)-3-ethylidene-4-(2-(4-hydroxyphenethoxy)-2-oxoethyl)-2{[(2R,3 S,4R,5R,6S)-3,4,5-trihydroxy-6-(hydroxymethyl)tetrahydro-2H-pyran-2-yl]oxy}-3,4dihydro-2H-pyran-5-carboxylic acid], the inhibition at 50 µM in data set [2] turned out to be 32.7%.

As to `C/C=C1/[C@H](OC2OC(CO)C(O)C(O)C2O)OC=C(C(=O)O)[C@H]1CC(=O)OCc1cc2ccccc2[nH]1` (stereo in doubt) [GS8, (2S,4S,E)-4-(2-((1H-indol-2-yl)methoxy)-2-oxoethyl)-3-ethylidene-2-{[(2R,3S,4R,5R,6S)-3,4,5-trihydroxy-6-(hydroxymethyl)tetrahydro-2H-pyran-2-yl]oxy}-3,4-dihydro-2H-pyran-5-carboxylic acid], the inhibition at 50 µM in data set [1] was determined as 38.2%; in data set [2], 22.5%.

For `C/C=C1/[C@H](OC2OC(CO)C(O)C(O)C2O)OC=C(C(=O)O)[C@H]1CC(=O)OCCCSC` (stereo in doubt) [GS9, (2S,4S,E)-3-ethylidene-4-(2-(3-(methylthio)propoxy)-2-oxoethyl)-2-{[(2R,3S,4R,5R,6S)-3,4,5-trihydroxy-6-(hydroxymethyl)tetrahydro-2H-pyran-2-yl]oxy}-3,4-dihydro-2H-pyran-5-carboxylic acid], the inhibition at 50 µM in data set [3] stood at 55%; in data set [1], 20%; in data set [2] it was 71.2%; in data set [5] it was 11.6%. The “Effectiveness to suppress HCT-116 cell growth (cell growth inhibition)” value in data set [4] is recorded as “suppressive activity”. Besides, the inhibition at 1 µM in data set [4] came to 41.7%. For the same compound, in data set [2], the “Effectiveness to suppress MDA-MB-231 cell growth (cell growth inhibition)” value is “highest suppressive activity”.

Consider `C/C=C1/[C@H](OC2OC(CO)C(O)C(O)C2O)OC=C(C(=O)O)[C@H]1CC(=O)SCCc1ccccc1` (stereo in doubt) [GS11, (2S,4S,E)-3-ethylidene-4-(2-oxo-2-(phenethylthio)ethyl)-2-{[(2R,3S,4R,5R,6S)-3,4,5-trihydroxy-6-(hydroxymethyl)tetrahydro-2H-pyran-2-yl]oxy}-3,4-dihydro-2H-pyran-5-carboxylic acid], for which the inhibition at 50 µM amounted to 50% in data set [3], 14.4% in data set [1], 74.3% in data set [2] and 57.8% in data set [5]. Further, the “Effectiveness to suppress HCT-116 cell growth (cell growth inhibition)” value in data set [4] was “suppressive activity”. Further, the inhibition at 1 µM in data set [4] worked out at 32.9%. For the same compound, the “Effectiveness to suppress MDA-MB-231 cell growth (cell growth inhibition)” value in data set [2] is “highest suppressive activity”.

As for `C/C=C(/C=O)[C@@H](CC=O)CC(=O)OCC12CC3CC(CC(C3)C1)C2` [GS23, (3S,4E)-4-formyl-3-(2-oxoethyl)hex-4-enoic acid adamantan-1-ylmethyl ester], the inhibition at 50 µM in data set [3] amounted to 15%; in data set [1], 25.2%; in data set [2] it was 42.7%; in data set [5] it was 64.7%. In addition, the “Deoxyribose Degradation Assay IC50” value in data set [6] came out at 17.6 μg extract/mL.
